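Cells were grown in 96-well plates and exposed to each compound for 48 hours at five concentrations; endpoints were interpolated linearly between bracketing concentrations, or set to the highest concentration if not reached. TGI marks complete inhibition of growth.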

Holding throughout (experiment): growth of human tumour cells (NCI), 48 h
In experiment [1] the test system is SK-MEL-28 melanoma.
The subject of experiment [2] is BT-549 breast.
Experiment [3] has as its system KM12 colon.
Experiment [4] deals with HOP-62 NSCLC.
For experiment [5], the system named is SR leukemia.
The subject of experiment [6] is HCT-116 colon.
Experiment [7] deals with U251 CNS.
In experiment [8] the test system is SNB-19 CNS.
In experiment [9] the test system is MOLT-4 leukemia.
The test system of experiment [10] is OVCAR-3 ovarian.

Take `O=[N+]([O-])c1ccc2nc3ccc([N+](=O)[O-])cn3c2c1`: the TGI in experiment [1] was above 100 µM; in [2], above 100 µM; in experiment [3] it was above 100 µM; in experiment [4], 39.1 µM; in experiment [5] it was above 100 µM; in experiment [6], above 100 µM. In addition, the TGI in experiment [7], in [8] and in [9] was above 100 µM each time.
Turning to `CN(C)c1ccc(C(=NNC(=O)c2cc3ccccc3[nH]2)c2ccc(N(C)C)cc2)cc1`, the TGI in experiment [2] is above 44.8 µM; in [3], above 100 µM; in experiment [4] it was 33.7 µM; in experiment [5], above 100 µM; in [6], above 34.2 µM; in experiment [10], 1.81 µM. For the same compound, the TGI in [7] was 14.5 µM; in experiment [8] it was above 44.5 µM; in experiment [9], above 100 µM.
With `O=C1CCC2(CC1)Cc1ccccc1C2O` (stereo not drawn), the TGI in experiment [1], in [2], in experiment [3], in [4], in [5] and in experiment [6] was above 100 µM throughout. Besides, the TGI in experiment [7], in [8] and in experiment [9] was above 100 µM throughout.
For the compound `O=C1c2ccccc2NC2C(O)c3ccccc3N12` (stereo not drawn), the TGI in experiment [2], in experiment [3], in [4], in [5], in [6] and in experiment [10] was above 100 µM throughout. Moreover, the TGI in experiment [7] was above 100 µM; in experiment [8], above 100 µM; in experiment [9] it was 58.7 µM.
`COc1ccc(Cn2nc(OCc3ccccn3)c3cc([N+](=O)[O-])ccc32)cc1`: the TGI in experiment [1], in [2], in experiment [3], in [4], in experiment [5] and in [10] was above 100 µM in each case. The TGI in [8] and in [9] was above 100 µM in each case.
Consider `CC1=NN(c2nc(N)nc(/C(C#N)=C/c3ccncc3)n2)C(C)(C)C1`, for which the TGI in experiment [1], in [2], in experiment [3], in experiment [4], in experiment [5] and in experiment [6] was above 100 µM in each case. Besides, the TGI in experiment [7], in experiment [8] and in experiment [9] was above 100 µM throughout.
With `CC(=O)Oc1ccc2cc(Oc3ccc(Cl)cc3)c(=O)oc2c1`, the TGI was above 100 µM in experiment [1]; 83.8 µM in experiment [2]; above 100 µM in [3]; above 100 µM in experiment [4]; above 100 µM in [5]; above 100 µM in [6]. The values for the TGI in experiment [10], in [7] and in [8] were 57.8 µM, above 100 µM and above 100 µM, respectively.
Turning to `O=c1c(Cc2ccc(Cl)cc2)nnc2sc(-c3ccc([N+](=O)[O-])cc3)nn12`, the TGI in [2] was 55.6 µM; in [3], above 100 µM; in experiment [4], above 100 µM; in experiment [5], 60.4 µM; in [6] it was 48.8 µM; in [7] it was above 100 µM. The TGI in experiment [8] and in experiment [9] was above 100 µM each time.
Turning to `NC(N)=N/N=C(\c1ccc(Cl)cc1)C1CC1`, the TGI in [1] turned out to be 38.2 µM; in experiment [2], 49.6 µM; in [3], 35.8 µM; in [4], 37.7 µM; in experiment [5] it was 29.1 µM; in experiment [6], 31 µM. Moreover, the TGI in [10] was 50.4 µM; in experiment [7], 27.2 µM; in experiment [8], above 100 µM.
As to `CCCCCCCCCCCCOC1C(COCCN2CCCC2)OC2OC(C)(C)OC21` (stereo not drawn), the TGI in experiment [1] was 3.12 µM; in experiment [2] it was 3.22 µM; in experiment [4] it was 3.2 µM; in experiment [5] it was 2.91 µM; in experiment [6], 3.13 µM; in experiment [10], 3.05 µM. Also, the TGI was 3.12 µM in [7], 10.2 µM in experiment [8] and 10.4 µM in experiment [9].
Regarding `Cc1ncc([N+](=O)[O-])n1CCN=[N+]=[N-]`, the TGI in experiment [1], in [2], in [3], in [4], in experiment [5] and in experiment [6] was above 100 µM in each case. Also, the TGI in experiment [10], in [7] and in experiment [8] was above 100 µM in each case.
Turning to `COc1cc(C2SCC(=O)N2NC(=O)c2ccc(NC(C)=O)cc2)cc(OC)c1OC` (stereo not drawn), the TGI in [1], in [2], in experiment [3], in experiment [4], in experiment [6] and in experiment [10] was above 100 µM in each case. The TGI in experiment [7], in experiment [8] and in experiment [9] was above 100 µM each time.
Regarding `COC(=O)Cc1c(C2=Nc3ccccc3C2(O)CC(=O)OC)[nH]c2ccccc12` (stereo not drawn), the TGI in experiment [1], in [2], in experiment [3], in experiment [4], in experiment [6] and in experiment [10] was above 100 µM in each case. Also, the values for the TGI in experiment [7], in [8] and in experiment [9] were above 100 µM, above 100 µM and 71.2 µM, respectively.
With `Cc1cnc(Cl)nc1C(C#N)c1nc2ccccc2n1C` (stereo not drawn), the TGI is above 100 µM in [1]; above 100 µM in experiment [2]; above 100 µM in [3]; above 100 µM in experiment [4]; 51.2 µM in experiment [6]; above 100 µM in experiment [10]. For the same compound, the TGI in experiment [7] was 45.5 µM; in [8], above 100 µM; in [9] it was above 100 µM.
Turning to `Cc1ccc(-c2cc(-c3ccc(Cl)cc3)nc(/N=C3\C(=O)N(CN4CCCCC4)c4ccc(Cl)cc43)n2)cc1`, the TGI in experiment [1] was above 100 µM; in [2], above 100 µM; in [3], 35.4 µM; in [4] it was 98.2 µM; in experiment [6], 76.1 µM; in experiment [10] it was above 100 µM. Also, the TGI worked out at 76.2 µM in experiment [7], 34.7 µM in experiment [8] and 63.4 µM in experiment [9].

These data come from PubChem BioAssay (NCI).
